{"source": "paper PMC5263201", "about": "“GABAA receptor occupancy by subtype selective GABAAα2,3 modulators: PET studies in humans” (Psychopharmacology, 2016)", "key": {"[1]": {"details": "VAS alertness-sedation, Modified Wilson Sedation Scale, DSST; ref NCT00681317 and NCT00681915; cited from earlier work"}, "[2]": {"parameters": "method as in Chen et al. 2014, 2015", "details": "neurophysiological test battery; ref Chen et al. 2014, 2015; cited from earlier work"}, "[3]": {"assay": "Brain exposure in animals", "assay_type": "in vivo"}, "[4]": {"system": "approximately 160 different ligand binding assays", "assay": "Battery of approximately 160 different ligand binding assays at 10 μM", "details": "active = ≥50% inhibition with an IC50 <1µM"}, "[5]": {"assay": "Safety and tolerability in the PET studies", "assay_type": "in vivo, human", "description": "Safety and tolerability assessments included records of adverse events, vital signs (blood pressure, heart rate), Allen’s test, ECG, clinical chemistry, hematology assessments, and urinalysis."}, "[6]": {"system": "GABAA receptors (benzodiazepine binding site)", "assay": "PET with [11C]flumazenil (HRRT): GABAA receptor occupancy", "assay_type": "in vivo, human", "details": "for Occupancy (%) CER: cerebellum; for Occupancy (%) CER / Occupancy (%) OC / Occupancy (%) PUT / Occupancy (%) AMG: 1 h after drug administration; for Occupancy (%) OC: occipital cortex; for Occupancy (%) PUT: putamen; for Occupancy (%) AMG: amygdala", "description": "Two separate open-label phase I PET studies were conducted in 2008–2009.\nThe initial study design included two sequential panels, with two subjects in each. The first panel was intended to obtain initial receptor occupancy values, to be used for dose selection in the second panel. […] The studies followed an adaptive design, i.e., doses and PET measurements were adjusted depending on the results of preceding measurements. […] To optimize quantification of the relationship between AZ6280 exposure and receptor occupancy, the number of subjects with the highest 40 mg dose was increased (Fig. 1).\nThe head of the subject was fixed using individual plaster helmet. A sterile physiological phosphate buffer (pH 7.4) solution containing [^11C]flumazenil was injected intravenously as a bolus during 2 s, immediately followed by flush with 10 ml saline. The injected radioactivity for [^11C]flumazenil was in the range of 330–350 MBq, (340 (9) MBq, mean, SD) in the study 1 and in the range of 317–363 MBq (335 (16) MBq) in the study 2. The specific radioactivity of the radioligand at time of injection ranged from 310 to 1465 GBq/μmol (730 (414) GBq/μmol, mean, SD) and from 464 to 1879 GBq/μmol (977 (424) GBq/μmol, mean, SD), for study 1 and study 2, respectively.\nPET examinations were performed over 63 min (HRRT; Siemens/CTI). List mode data were reconstructed using the ordinary Poisson 3D ordered subset estimation maximization algorithm, with 10 iterations and 16 subsets including modeling of the point spread function (Varrone et al. [2009]) into a 4D PET image containing 33 consecutive time frames (9 × 10 s, 2 × 15 s, 3 × 20 s, 4 × 30 s, 4 × 60 s, 4 × 180 s, 7 × 360 s) with a 3D array of 256 × 256 × 207 voxels having a size of 1.22 × 1.22 × 1.22 mm.\nThe anatomical brain regions were delineated manually on the MR images using in-house image analysis software. The regions included cortical and striatal subregions, thalamus, cerebellum, limbic regions, pons, and whole brain. The following four regions were selected in the final analysis: The occipital cortex and cerebellum were chosen because of the highest GABAA receptor binding by [^11C]flumazenil and good imaging statistics and preferential distribution of α1/α2 receptor subtypes; the amygdala was chosen because of its role in the brain circuits involved in anxiety and putamen for preferential α1/α2/α3 versus α5 receptor subtypes (Lingford-Hughes et al. [2002]; Fatemi et al. [2013]; Waldvogel and Faull [2015]). For the pons, the ROI was drawn on horizontal projection on the six central slices. […] The concentration of radioactivity in each ROI, calculated for each sequential time frame and corrected for ^11C decay, was plotted versus time (TACs).\nAn index of neuronal GABAA receptor density or binding potential (BPND) was calculated using the simplified reference tissue model (Lammertsma and Hume [1996]) and pons as a reference region. The calculated receptor occupancy (%) was then correlated to drug exposure according to the following equation:1 Occupancy=Occmax×Cav,PET/Ki,plasma+Cav,PET\nwhere Occmax is the maximal occupancy induced by drug, C av,PET is the total drug plasma concentration, and K i,plasma is the inhibition constant corresponding to the drug plasma concentration required for half-maximum receptor occupancy. Non-linear least squares curve fitting of the relationship between drug plasma concentration and receptor occupancy was performed using Matlab R2007b (http://de.mathworks.com). Regional data were fitted simultaneously to obtain a single estimate of K i,plasma and regionally different estimates of Occmax. Best fit estimate and confidence interval (95% CI) were obtained on the logarithmic scale."}, "human MT1 receptor": {"molecular_target": "human MT1 receptor (Homo sapiens, UniProt P48039)", "sequence (P48039 whole entry)": "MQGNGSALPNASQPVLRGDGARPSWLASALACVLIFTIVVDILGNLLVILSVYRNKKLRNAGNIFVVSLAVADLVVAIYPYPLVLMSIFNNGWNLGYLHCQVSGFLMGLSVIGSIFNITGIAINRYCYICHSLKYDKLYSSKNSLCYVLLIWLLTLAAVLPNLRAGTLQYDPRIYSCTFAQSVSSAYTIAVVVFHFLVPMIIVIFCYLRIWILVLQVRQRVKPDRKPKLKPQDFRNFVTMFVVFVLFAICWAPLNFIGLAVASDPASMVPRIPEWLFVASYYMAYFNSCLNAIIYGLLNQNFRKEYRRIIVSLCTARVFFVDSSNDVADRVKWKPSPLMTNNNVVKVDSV", "assay": "MT1 receptor GTPγS studies", "assay_type": "biochemical"}, "[7]": {"assay": "Plasma pharmacokinetics after single oral doses in the PET studies", "assay_type": "in vivo, human", "details": "for C av,PET: average plasma concentration at time of PET", "description": "Venous blood samples for determination of drug plasma concentrations were collected at approximately 15 min before [^11C]flumazenil injection and at 15 and 30 min and 3, 4, 6, 8, 10, 12, 16, 24, 36, and 48 h after drug administration, including three samples during PET measurement, at 1, 1.30, and 2 h after drug administration.\nCalculations of the pharmacokinetic parameters included the maximum plasma concentration (C max), the time to the maximum plasma concentration (T max), and the average drug plasma concentration during the PET measurement (C av,PET) (division of the partial area corresponding to the start and end times of PET assessment, AUCPET, by the duration of the PET measurement). The pharmacokinetic calculations were performed using non-compartmental analysis using WinNonlin™, Pharsight Corporation."}, "[8]": {"details": "AZD7325 single oral dose 0.2 mg"}}, "note": "Where “and” joins values, the source holds several entries; their conditions need not be identical. Equal entries are not always repeated. Where two headings read alike, the source gives them in different places.", "data": [{"smiles": "CCCNC(=O)c1nnc2c(-c3c(F)cccc3OC)cccc2c1N", "note": "[AZD7325]", "values": [{"measurement": "relationship between dose and alertness or cognitive performance", "setting": "[1]", "value": "no significant relationship"}, {"measurement": "receptor occupancy up to which no cognitive or hypnotic side effects were observed", "setting": "[2]", "value": "up to 80%"}, {"measurement": "brain exposure", "setting": "[3]", "value": "good brain exposure"}, {"measurement": "activity in the battery of ligand binding assays", "setting": "[4]", "value": "only assays in which either compound was active were the melatonin Type 1 and Type 2 receptors"}, {"measurement": "receptor occupancy at the doses/exposure at which adverse events were reported", "setting": "[5]; AZD7325 5, 20 and 30 mg, AZD6280 20 mg and above", "value": "> 70", "unit": "%"}, {"measurement": "high receptor occupancy reached without obvious sedative effects", "setting": "[5]; PET studies", "value": "> 70", "unit": "%"}, {"measurement": "CNS-related AEs", "setting": "[5]; reported by three subjects at 20 and 30 mg and in one subject both at 20 and at 5 mg", "value": "dizziness, feeling hot, anhedonia, and hypoesthesia"}, {"measurement": "calculated GABAA receptor occupancy at the highest doses", "setting": "[6]; 20–30 mg AZD7325, occipital cortex and cerebellum", "value": "over 80%"}, {"measurement": "Occupancy (%) CER", "setting": "[6]; [8]", "value": "−5% and 3%"}, {"measurement": "Occupancy (%) OC", "setting": "[6]; [8]", "value": "−8% and 0.5%"}, {"measurement": "Occupancy (%) CER", "setting": "[6]; AZD7325 single oral dose 1 mg", "value": "43% and 25%"}, {"measurement": "Occupancy (%) CER", "setting": "[6]; AZD7325 single oral dose 2 mg", "value": "45% and 60%"}, {"measurement": "Occupancy (%) OC", "setting": "[6]; AZD7325 single oral dose 2 mg", "value": "24% and 42%"}, {"measurement": "Occupancy (%) PUT", "setting": "[6]; AZD7325 single oral dose 2 mg", "value": "28% and 26%"}, {"measurement": "Occupancy (%) AMG", "setting": "[6]; AZD7325 single oral dose 5 mg", "value": "16% and 26%"}, {"measurement": "Occupancy (%) CER", "setting": "[6]; AZD7325 single oral dose 5 mg", "value": "85% and 82%"}, {"measurement": "Occupancy (%) OC", "setting": "[6]; AZD7325 single oral dose 5 mg", "value": "77% and 67%"}, {"measurement": "Occupancy (%) PUT", "setting": "[6]; AZD7325 single oral dose 5 mg", "value": "40% and 37%"}, {"measurement": "Occupancy (%) CER", "setting": "[6]; AZD7325 single oral dose 20 mg", "value": "77% and 95%"}, {"measurement": "Occupancy (%) OC", "setting": "[6]; AZD7325 single oral dose 20 mg", "value": "75% and 85%"}, {"measurement": "Occupancy (%) PUT", "setting": "[6]; AZD7325 single oral dose 20 mg", "value": "41% and 46%"}, {"measurement": "Occupancy (%) AMG", "setting": "[6]; AZD7325 single oral dose 30 mg", "value": 37, "unit": "%"}, {"measurement": "Occupancy (%) CER", "setting": "[6]; AZD7325 single oral dose 30 mg", "value": 89, "unit": "%"}, {"measurement": "Occupancy (%) OC", "setting": "[6]; AZD7325 single oral dose 30 mg", "value": 82, "unit": "%"}, {"measurement": "Occupancy (%) PUT", "setting": "[6]; AZD7325 single oral dose 30 mg", "value": 52, "unit": "%"}, {"measurement": "Emax", "setting": "human MT1 receptor", "value": 90, "unit": "%"}, {"measurement": "C av,PET", "setting": "[7]; [8]", "value": "1.74 nM and 2.93 nM"}, {"measurement": "Cmax", "setting": "[7]; AZD7325 single oral dose 0.2 mg, individual subjects, read-out: C max", "value": 4.12, "unit": "nM"}, {"measurement": "T max", "setting": "[7]; AZD7325 single oral dose 1 mg, individual subjects", "value": 1.0, "unit": "h"}, {"measurement": "Cmax", "setting": "[7]; AZD7325 single oral dose 1 mg, individual subjects, read-out: C max", "value": "5.19 nM and 12.8 nM"}, {"measurement": "T max", "setting": "[7]; AZD7325 single oral dose 2 mg, individual subjects", "value": 1.1, "unit": "h"}, {"measurement": "Cmax", "setting": "[7]; AZD7325 single oral dose 2 mg, individual subjects, read-out: C max", "value": "5.19 nM and 21.4 nM"}, {"measurement": "C av,PET", "setting": "[7]; AZD7325 single oral dose 5 mg", "value": "46.28 nM and 39.22 nM"}, {"measurement": "T max", "setting": "[7]; AZD7325 single oral dose 5 mg, individual subjects", "value": 1.0, "unit": "h"}, {"measurement": "Cmax", "setting": "[7]; AZD7325 single oral dose 5 mg, individual subjects, read-out: C max", "value": 44, "unit": "nM"}, {"measurement": "Cmax", "setting": "[7]; AZD7325 single oral dose 20 mg, individual subjects, read-out: C max", "value": 302, "unit": "nM"}, {"measurement": "C av,PET", "setting": "[7]; AZD7325 single oral dose 30 mg", "value": 265.25, "unit": "nM"}, {"measurement": "Cmax", "setting": "[7]; human, plasma, oral, range over all doses and subjects, read-out: range for peak exposures, Cmax", "value": "0.81 to 109", "unit": "ng/mL"}, {"measurement": "Tmax", "setting": "[7]; human, plasma, po, 0.2 mg, AZD7325 single oral dose 0.2 mg, individual subjects", "value": 0.5, "unit": "h"}, {"measurement": "Cmax", "setting": "[7]; human, plasma, po, 0.2 mg, AZD7325 single oral dose 0.2 mg, individual subjects, read-out: C max", "value": 2.29, "unit": "nM"}, {"measurement": "Tmax", "setting": "[7]; human, plasma, po, 1 mg, AZD7325 single oral dose 1 mg, individual subjects", "value": 1.8, "unit": "h"}, {"measurement": "Tmax", "setting": "[7]; human, plasma, po, 2 mg, AZD7325 single oral dose 2 mg, individual subjects", "value": 1.3, "unit": "h"}, {"measurement": "Cmax", "setting": "[7]; human, plasma, po, 5 mg, AZD7325 single oral dose 5 mg, individual subjects, read-out: C max", "value": 50.2, "unit": "nM"}, {"measurement": "Tmax", "setting": "[7]; human, plasma, po, 20 mg, AZD7325 single oral dose 20 mg, individual subjects", "value": 3, "unit": "h"}, {"measurement": "Cmax", "setting": "[7]; human, plasma, po, 20 mg, AZD7325 single oral dose 20 mg, individual subjects, read-out: C max", "value": 213, "unit": "nM"}, {"measurement": "Tmax", "setting": "[7]; human, plasma, po, 30 mg, AZD7325 single oral dose 30 mg, individual subject", "value": 2.2, "unit": "h"}, {"measurement": "Cmax", "setting": "[7]; human, plasma, po, 30 mg, AZD7325 single oral dose 30 mg, individual subject, read-out: C max", "value": 308, "unit": "nM"}]}]}
